Reference: US9926281B2 (priority 2014, dated 2018)

Tests used:
human TACE = human TACE (Homo sapiens (Human), UniProt P78536); details: read-out: TACE potency IC50
human ADAMTS-5 = human ADAMTS-5 (Homo sapiens (Human), UniProt Q9UNA0); details: read-out: hADAMTS-5 potency IC50
human ADAMTS-5, sequence (Q9UNA0 262-930): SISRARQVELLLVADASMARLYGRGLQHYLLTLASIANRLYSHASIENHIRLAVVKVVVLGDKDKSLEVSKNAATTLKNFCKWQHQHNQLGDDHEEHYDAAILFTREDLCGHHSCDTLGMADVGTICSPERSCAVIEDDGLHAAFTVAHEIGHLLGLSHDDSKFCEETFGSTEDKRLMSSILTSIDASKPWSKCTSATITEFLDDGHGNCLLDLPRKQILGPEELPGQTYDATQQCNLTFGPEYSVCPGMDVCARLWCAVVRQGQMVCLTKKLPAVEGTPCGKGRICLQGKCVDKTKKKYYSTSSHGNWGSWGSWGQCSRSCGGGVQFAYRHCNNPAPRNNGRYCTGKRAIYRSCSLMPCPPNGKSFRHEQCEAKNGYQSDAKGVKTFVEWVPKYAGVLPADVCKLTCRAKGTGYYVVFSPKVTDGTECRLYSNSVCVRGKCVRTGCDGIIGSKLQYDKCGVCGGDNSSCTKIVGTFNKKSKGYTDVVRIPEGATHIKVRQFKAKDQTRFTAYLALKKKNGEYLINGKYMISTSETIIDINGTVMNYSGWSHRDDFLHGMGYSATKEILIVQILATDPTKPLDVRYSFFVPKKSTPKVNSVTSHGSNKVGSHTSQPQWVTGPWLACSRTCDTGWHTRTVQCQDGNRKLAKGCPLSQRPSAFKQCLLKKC
Procedure: Finally, the fluorescence is read on the Envision (Perkin Elmer) after an incubation of 90 min at 37° C.

human TACE, sequence (P78536 whole entry, looked up, change not shown): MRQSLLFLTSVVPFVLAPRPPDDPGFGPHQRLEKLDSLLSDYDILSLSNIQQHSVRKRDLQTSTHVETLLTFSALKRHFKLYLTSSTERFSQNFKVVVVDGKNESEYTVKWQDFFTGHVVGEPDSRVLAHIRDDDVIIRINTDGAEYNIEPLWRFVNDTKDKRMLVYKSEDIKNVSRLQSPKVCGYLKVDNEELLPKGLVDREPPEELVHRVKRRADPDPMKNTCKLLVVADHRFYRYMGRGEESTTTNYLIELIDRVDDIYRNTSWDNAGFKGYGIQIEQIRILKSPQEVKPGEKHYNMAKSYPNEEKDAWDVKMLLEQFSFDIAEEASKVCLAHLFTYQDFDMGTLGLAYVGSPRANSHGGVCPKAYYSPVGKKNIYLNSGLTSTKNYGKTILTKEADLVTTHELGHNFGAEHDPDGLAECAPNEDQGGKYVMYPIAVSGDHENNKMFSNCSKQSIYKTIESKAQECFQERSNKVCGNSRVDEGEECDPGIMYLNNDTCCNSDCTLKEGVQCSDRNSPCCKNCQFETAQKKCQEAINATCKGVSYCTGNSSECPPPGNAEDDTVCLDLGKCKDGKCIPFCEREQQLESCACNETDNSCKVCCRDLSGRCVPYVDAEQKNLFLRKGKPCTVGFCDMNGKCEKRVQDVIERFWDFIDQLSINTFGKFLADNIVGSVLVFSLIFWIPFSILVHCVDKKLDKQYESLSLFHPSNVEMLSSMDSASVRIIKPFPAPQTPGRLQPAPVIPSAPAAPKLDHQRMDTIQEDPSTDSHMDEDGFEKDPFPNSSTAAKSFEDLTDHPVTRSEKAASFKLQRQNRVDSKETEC

SMILES	IC50 (human TACE)	IC50 (human ADAMTS-5)
Cc1cccc(C2(CCC(=O)N3CCN(c4cc(Cl)cc(Cl)c4)[C@@H](C)C3)NC(=O)NC2=O)n1 (stereo partly drawn) [compound 310, 5-[3-[(3S)-4-(3,5-dichlorophenyl)-3-methyl-piperazin-1-yl]-3-oxo-propyl]-5-(6-methyl-2-pyridyl)imidazolidine-2,4-dione]	1320 nM	50 nM
C[C@H]1CN(C(=O)CCC2(C3CC3)NC(=O)NC2=O)CCN1c1ccnc(Cl)n1 (stereo partly drawn) [compound 301, 5-[3-[(3S)-4-(2-chloropyrimidin-4-yl)-3-methyl-piperazin-1-yl]-3-oxo-propyl]-5-cyclopropyl-imidazolidine-2,4-dione]	> 20000 nM	> 20000 nM
Cc1cc(N2CCN(C(=O)CCC3(C)NC(=O)NC3=O)CC2)c(F)cc1Cl (stereo not shown) [compound 267, 5-[3-[4-(4-chloro-2-fluoro-5-methyl-phenyl)piperazin-1-yl]-3-oxo-propyl]-5-methyl-imidazolidine-2,4-dione]	> 4000 nM	3080 nM
C[C@H]1CN(C(=O)CCC2(C3CC3)NC(=O)NC2=O)CCN1c1cnnc(Cl)c1 (stereo partly drawn) [compound 373, 5-[3-[(3S)-4-(6-chloropyridazin-4-yl)-3-methyl-piperazin-1-yl]-3-oxo-propyl]-5-cyclopropyl-imidazolidine-2,4-dione]	> 20000 nM	1530 nM
C[C@H]1CN(C(=O)CCC2(C3CC3)NC(=O)NC2=O)CCN1c1cccc(-c2cncnc2)c1 (stereo partly drawn) [compound 377, 5-cyclopropyl-5-[3-[(3S)-3-methyl-4-(3-pyrimidin-5-ylphenyl)piperazin-1-yl]-3-oxo-propyl]imidazolidine-2,4-dione]	> 20000 nM	700 nM
CC(CC1(CCN)NC(=O)NC1=O)C(=O)N1CCN(c2ccc(F)c(F)c2)CC1 (stereo not shown) [Cpd 241, 5-(2-aminoethyl)-5-[3-[4-(3,4-difluorophenyl)piperazin-1-yl]-2-methyl-3-oxo-propyl]imidazolidine-2,4-dione]	> 12000 nM	232 nM
COCC1(CC(C)C(=O)N2CCN(c3ccc(F)cc3)[C@@H](C)C2)NC(=O)NC1=O (stereo partly drawn) [compound 366, 5-[3-[(3S)-4-(4-fluorophenyl)-3-methyl-piperazin-1-yl]-2-methyl-3-oxo-propyl]-5-(methoxymethyl)imidazolidine-2,4-dione]	> 4000 nM	36 nM
C[C@H]1CN(C(=O)CCC2(c3ncccn3)NC(=O)NC2=O)CCN1c1cc(F)cc(F)c1 (stereo partly drawn) [compound 382, 5-[3-[(3S)-4-(3,5-difluorophenyl)-3-methyl-piperazin-1-yl]-3-oxo-propyl]-5-pyrimidin-2-yl-imidazolidine-2,4-dione]	> 20000 nM	39 nM
COCCOCC1(CC(C)C(=O)N2CCN(c3cc(Cl)cc(Cl)c3)[C@@H](C)C2)NC(=O)NC1=O (stereo partly drawn) [compound 426, 5-(3-((S)-4-(3,5-dichlorophenyl)-3-methylpiperazin-1-yl)-2-methyl-3-oxopropyl)-5-((2-methoxyethoxy)methyl)imidazolidine-2,4-dione]	–	110 nM
C[C@H]1CN(C(=O)CCC2(C3CC3)NC(=O)NC2=O)CCN1c1ccc2ncsc2c1 (stereo partly drawn) [compound 305, 5-[3-[(3S)-4-(1,3-benzothiazol-6-yl)-3-methyl-piperazin-1-yl]-3-oxo-propyl]-5-cyclopropyl-imidazolidine-2,4-dione]	> 20000 nM	–
Cc1cc(N2CCN(C(=O)CC[C@@]3(C)NC(=O)NC3=O)CC2)cc(C)c1Cl [compound 401, (5R)-5-[3-[4-(4-chloro-3,5-dimethyl-phenyl)piperazin-1-yl]-3-oxo-propyl]-5-methyl-imidazolidine-2,4-dione]	–	1120 nM
CC(CC1(C2CN(C)C2)NC(=O)NC1=O)C(=O)N1CCN(c2ccc(F)c(F)c2)[C@@H](C)C1 (stereo partly drawn) [Cpd 399, 5-[3-[(3S)-4-(3,4-difluorophenyl)-3-methy-piperazin-1-yl]-2-methyl-3-oxo-propy]-5-(1-methylazetidin-3-yl)imidazolidine-2,4-dione]	–	163 nM
C[C@@H]1CN(C(=O)CC[C@@]2(C3CC3)NC(=O)NC2=O)CCN1c1cc(F)cc(F)c1 [compound 403, (5S)-5-cyclopropyl-5-[3-[(3R)-4-(3,5-difluorophenyl)-3-methyl-piperazin-1-yl]-3-oxo-propyl]imidazolidine-2,4-dione]	–	168 nM
COCCOCC1(CC(C)C(=O)N2CCN(c3cc(Cl)cc(Cl)c3)[C@@H](C)C2)NC(=O)NC1=O (stereo partly drawn) [compound 221, 5-[3-[(3S)-4-(3,5-dichlorophenyl)-3-methyl-piperazin-1-yl]-2-methyl-3-oxo-propyl]-5-(2-methoxyethoxymethyl)imidazolidine-2,4-dione]	3200 nM	–
Cc1cc(N2CCN(C(=O)CCC3(CC(=O)NCCO)NC(=O)NC3=O)CC2)ccc1Cl (stereo not shown) [Cpd 402, 2-[4-[3-[4-(4-chloro-3-methyl-phenyl)piperazin-1-yl]-3-oxo-propyl]-2,5-dioxo-imidazolidin-4-yl]-N-(2-hydroxyethyl)acetamide]	–	732 nM
Cc1cccc(C2(CCC(=O)N3CCN(c4ccc(Cl)c(Cl)c4)[C@@H](C)C3)NC(=O)NC2=O)n1 (stereo partly drawn) [compound 452, 5-[3-[(3S)-4-(3,4-dichlorophenyl)-3-methyl-piperazin-1-yl]-3-oxo-propyl]-5-(6-methyl-2-pyridyl)imidazolidine-2,4-dione]	–	23 nM
Cc1c(Cl)cc(F)cc1N1CCN(C(=O)CCC2(C)NC(=O)NC2=O)CC1 (stereo not shown) [compound 293, 5-[3-[4-(3-chloro-5-fluoro-2-methyl-phenyl)piperazin-1-yl]-3-oxo-propyl]-5-methyl-imidazolidine-2,4-dione]	–	294 nM
CC(CC1(c2ccccn2)NC(=O)NC1=O)C(=O)N1CCN(c2ccc(F)c(Cl)c2)[C@@H](C)C1 (stereo partly drawn) [compound 245, 5-[3-[(3S)-4-(3-chloro-4-fluoro-phenyl)-3-methyl-piperazin-1-yl]-2-methyl-3-oxo-propyl]-5-(2-pyridyl)imidazolidine-2,4-dione]	–	17 nM
CC(CC1(c2ccccn2)NC(=O)NC1=O)C(=O)N1CCN(c2ccc(F)c(Cl)c2)[C@@H](C)C1 (stereo partly drawn) [compound 437, 5-(3-((S)-4-(3-chloro-4-fluorophenyl)-3-methylpiperazin-1-yl)-2-methyl-3-oxopropyl)-5-(pyridin-2-yl)imidazolidine-2,4-dione]	–	17 nM
C[C@H]1CN(C(=O)CCC2(c3ccccn3)NC(=O)NC2=O)CCN1c1ccc(F)c(Cl)c1 (stereo partly drawn) [compound 457, 5-[3-[(3S)-4-(3-chloro-4-fluoro-phenyl)-3-methyl-piperazin-1-yl]-3-oxo-propyl]-5-(2-pyridyl)imidazolidine-2,4-dione]	–	47 nM
Cc1cc(Cl)c(F)cc1N1CCN(C(=O)CCC2(C)NC(=O)NC2=O)C[C@@H]1C (stereo partly drawn) [compound 202, 5-[3-[(3S)-4-(4-chloro-5-fluoro-2-methyl-phenyl)-3-methyl-piperazin-1-yl]-3-oxo-propyl]-5-methyl-imidazolidine-2,4-dione]	–	724 nM
CN(C)CCC1(CCC(=O)N2CCN(c3cccc(Cl)c3)CC2)NC(=O)NC1=O (stereo not shown) [compound 44, 5-[3-[4-(3-chlorophenyl)piperazin-1-yl]-3-oxo-propyl]-5-(2-dimethylaminoethyl)imidazolidine-2,4-dione]	> 20000 nM	–
CNc1ccccc1N1CCN(C(=O)CCC2(C3CC3)NC(=O)NC2=O)CC1 (stereo not shown) [compound 185, 5-cyclopropyl-5-[3-[4-[2-(methylamino)phenyl]piperazin-1-yl]-3-oxo-propyl]imidazolidine-2,4-dione]	–	> 4000 nM
